{"source": "patent US20100222421A1", "about": "“Usage of Baicalein in the Preparation of a Pharmaceutical Composition for the Treatment of Traumatic Brain Injury” (National Defense Medical Center, priority 2009, published 2010)", "test_system": "IL-6-positive cells", "assay": "Immunohistochemistry, IL-6-positive cells after CCI injury", "assay_type": "in vivo, rat", "conditions": "single-dose 30 mg kg^-1 i.p.; cortical tissue adjacent to contusion core, 1 day post-injury", "procedure": "A previously described CCI injury procedure was utilized (Chen et al., 2003). Male Sprague-Dawley rats, which have body weight of 250-300 g, were anaesthetized with sodium pentobarbital (i.p.; 50 mgkg^−1; Rhone Merieux, Harlow, UK) and placed in a stereotaxic frame. A 5-mm craniotomy was performed over the left parietal cortex, centered on the coronal suture and 3 mm lateral to the sagittal suture. Considerable care was taken to avoid injury to the underlying dura. Injury was made using a pneumatic piston with a rounded metal tip (2.5 mm diameter) that was angled 22.5° C. to the vertical so that the tip was perpendicular with the brain surface at the centre of the craniotomy. A velocity of 4 ms^−1 and a deformation depth 2 mm below the dura were used. The bone flap was immediately replaced and sealed, and the scalp was closed with sutures. Body temperature was monitored throughout the surgery by a rectal probe; temperature was maintained at 37.0±0.5° C. using a heated pad. […] Testing after injury was as follows: (1) real-time quantitative RT-PCR analysis for TNF-α, IL-1β and IL-6 mRNA expression at 6 h post-injury (n=7 for each group); (2) FluoroJade B (FJB) staining, TNF-α, IL-1β and IL-6 immunohistochemistry, as well as ELISA at 24 h post-injury to assess degenerative neurons and to determine cytokine expression (n=7 for each group). […]"}
{"smiles": "O=c1cc(-c2ccccc2)oc2cc(O)c(O)c(O)c12", "note": "[baicalein]", "values": [{"measurement": "reduction in IL-6-positive cells relative to vehicle", "value": 33, "unit": "%"}]}
